Drawing on US20240246967A1, “AXL COMPOUNDS” (ARCUS BIOSCIENCES, INC., priority 2021, published 2024), this text covers IC50 for 14 molecules.

The target in one test is T1, human MER (Homo sapiens, UniProt Q12866).
T1 construct: purchased Invitrogen
T1 sequence (Q12866 21-999): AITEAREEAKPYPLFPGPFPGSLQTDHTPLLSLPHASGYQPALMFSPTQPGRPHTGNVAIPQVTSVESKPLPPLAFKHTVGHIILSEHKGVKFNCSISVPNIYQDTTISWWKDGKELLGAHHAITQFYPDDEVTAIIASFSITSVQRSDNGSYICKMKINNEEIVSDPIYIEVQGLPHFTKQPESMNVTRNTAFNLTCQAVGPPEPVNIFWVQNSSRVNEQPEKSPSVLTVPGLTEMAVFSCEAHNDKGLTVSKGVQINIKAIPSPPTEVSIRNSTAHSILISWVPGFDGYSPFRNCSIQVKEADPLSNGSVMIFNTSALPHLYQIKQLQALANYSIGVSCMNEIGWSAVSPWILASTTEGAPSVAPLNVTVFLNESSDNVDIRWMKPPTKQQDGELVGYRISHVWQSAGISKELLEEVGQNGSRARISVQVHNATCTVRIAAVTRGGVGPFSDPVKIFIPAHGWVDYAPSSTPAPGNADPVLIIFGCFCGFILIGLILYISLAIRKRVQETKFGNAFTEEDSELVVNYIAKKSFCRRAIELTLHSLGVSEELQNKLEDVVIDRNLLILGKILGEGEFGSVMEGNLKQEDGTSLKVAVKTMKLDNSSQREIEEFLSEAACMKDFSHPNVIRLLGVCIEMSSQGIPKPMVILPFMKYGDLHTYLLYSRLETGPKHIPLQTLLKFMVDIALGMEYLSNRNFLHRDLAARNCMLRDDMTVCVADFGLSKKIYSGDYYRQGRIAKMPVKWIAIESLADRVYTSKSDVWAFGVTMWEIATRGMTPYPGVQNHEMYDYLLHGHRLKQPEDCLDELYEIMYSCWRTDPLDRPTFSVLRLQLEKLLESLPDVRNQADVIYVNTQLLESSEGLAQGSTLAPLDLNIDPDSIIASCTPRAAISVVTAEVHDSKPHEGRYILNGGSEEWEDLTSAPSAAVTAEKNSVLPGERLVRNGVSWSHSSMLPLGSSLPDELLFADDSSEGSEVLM
In words: HTRF KinEASE-TK biochemical potency assay, MER. To be noted: 1 nM MER, 700 μM ATP, 800 nM TK Substrate-biotin. As to the method: (§1) Purified recombinant human AXL, TYRO3 and MER proteins were purchased from Invitrogen™. 10 nM AXL, 2 nM TYRO3 or MER were incubated with varying concentrations of compounds in 50 mM HEPES, pH 7.4, 10 mM MgCl2, 0.01% BSA, 1 mM DTT and 2% DMSO in a total volume of 20 μl in a 384-well microplate (Corning™ #3640) at RT for 1 h. The AXL, TYRO3 and MER enzymatic reaction was initiated by transferring 10 μl of enzyme and compound mixture into 10 μl of 1.6 μM TK Substrate-biotin (HTRF® KinEASE-TK kit, Cisbio) and 1400 μM ATP pre-incubated in 50 mM HEPES, pH 7.4, 10 mM MgCl2, 0.01% BSA, 1 mM DTT in a 384-well microplate (Corning™ #3640) at RT, giving the final reaction conditions: 5 nM AXL, 1 nM TYRO3 or MER, 800 nM TK Substrate-biotin and 700 μM ATP in 50 mM HEPES, pH 7.4, 10 mM MgCl2, 0.01% BSA, 1 mM DTT and 1% DMSO with varying concentrations of compounds. Following 2 h incubation at RT, the AXL, TYRO3 and MER enzymatic reaction was stopped by transfer of 10 μl of reaction into 10 μl of detection mix (400 nM Streptavidin-XL665, 200-fold dilution TK Antibody-Cryptate and detection buffer, HTRF® KinEASE-TK kit, Cisbio) in a white 384-well microplate (Perkin Elmer, OptiPlate 384). After 1 h incubation at RT, the plate was put into a plate reader (Evision) to read at 665/620 nm (acceptor/donor) for HTRF. The value of the DMSO blank (MIN inhibition=100% activity) was used as a negative control. The positive control was established by adding 5 μl of enzyme and DMSO mixture into 10 μl of detection mix followed by addition of 5 μl of TK Substrate-biotin and ATP mixture (MAX inhibition=0% activity). To calculate the percent activity, Equation 1 was used. Ratio 665/620 is the value at a given compound concentration: […]
Background: TR-FRET usually uses a lanthanide donor and a delayed reading to cut background.

A further test addresses T2, human TYRO3 (Homo sapiens, UniProt Q06418).
T2 construct: purchased Invitrogen
T2 sequence (Q06418 41-890): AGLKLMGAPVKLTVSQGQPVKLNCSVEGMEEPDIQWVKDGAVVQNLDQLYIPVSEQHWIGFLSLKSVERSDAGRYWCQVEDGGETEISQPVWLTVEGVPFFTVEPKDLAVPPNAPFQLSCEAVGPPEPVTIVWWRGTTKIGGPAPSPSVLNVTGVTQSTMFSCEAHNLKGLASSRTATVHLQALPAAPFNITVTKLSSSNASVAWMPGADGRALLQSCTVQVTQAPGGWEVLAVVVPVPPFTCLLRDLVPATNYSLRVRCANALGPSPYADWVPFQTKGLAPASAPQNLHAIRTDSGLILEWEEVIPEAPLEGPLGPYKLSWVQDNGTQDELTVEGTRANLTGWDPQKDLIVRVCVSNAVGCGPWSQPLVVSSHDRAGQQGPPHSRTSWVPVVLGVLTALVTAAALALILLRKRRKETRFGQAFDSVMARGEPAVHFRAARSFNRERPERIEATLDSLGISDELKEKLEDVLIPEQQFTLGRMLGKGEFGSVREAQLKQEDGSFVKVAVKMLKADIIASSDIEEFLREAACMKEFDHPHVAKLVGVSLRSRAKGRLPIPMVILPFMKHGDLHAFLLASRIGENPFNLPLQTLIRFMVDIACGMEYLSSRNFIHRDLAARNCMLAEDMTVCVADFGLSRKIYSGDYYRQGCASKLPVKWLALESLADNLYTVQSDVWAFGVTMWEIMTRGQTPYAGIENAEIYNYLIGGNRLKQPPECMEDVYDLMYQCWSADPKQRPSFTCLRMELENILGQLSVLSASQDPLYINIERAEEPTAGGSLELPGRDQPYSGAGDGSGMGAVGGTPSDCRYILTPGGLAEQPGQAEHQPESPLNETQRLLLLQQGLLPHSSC
In words: HTRF KinEASE-TK biochemical potency assay, TYRO3. To be noted: 1 nM TYRO3, 700 μM ATP, 800 nM TK Substrate-biotin. Here is the method: as §1

A value given as a limit tells only on which side of the number the result lay.

Broadly, the IC50 is the concentration needed to halve the response being measured. Take `CS(=O)(=O)N1CCC(c2n[nH]c3ncc(-c4ccc5c(c4)CCC(N4CCCC4)CC5)cc23)CC1` (stereo not shown) [Example 23, 1-Methanesulfonyl-4-{5-[7-(pyrrolidin-1-yl)-6,7,8,9-tetrahydro-5H-benzo[7]annulen-2-yl]-1H-pyrazolo[3,4-b]pyridin-3-yl}piperidine]: the IC50 at human MER and against human TYRO3 was 100 to 1000 nM each time.

In the case of `C[C@H]1CCCN1C1CCc2ccc(-c3cnc4[nH]nc(-c5ccc(S(=O)(=O)C6CC6)cc5)c4c3)cc2CC1` (stereo partly drawn) [Example 24, 3-(4-(Cyclopropylsulfonyl)phenyl)-5-(7-((S)-2-methylpyrrolidin-1-yl)-6,7,8,9-tetrahydro-5H-benzo[7]annulen-2-yl)-1H-pyrazolo[3,4-b]pyridine], the IC50 on human MER and against human TYRO3 was 100 to 1000 nM in each case.

`C[C@@H]1CCCN1C1(C)CCc2ccc(-c3cnc4[nH]nc(-c5ccc(S(=O)(=O)C6CC6)c(F)c5)c4c3)cc2CC1` (stereo partly drawn) [Example 25, (2R)-1-(2-{3-[4-(Cyclopropanesulfonyl)-3-fluorophenyl]-1H-pyrazolo[3,4-b]pyridin-5-yl}-7-methyl-6,7,8,9-tetrahydro-5H-benzo[7]annulen-7-yl)-2-methylpyrrolidine]: the IC50 at human MER is 100 to 1000 nM; against human TYRO3, less than 100 nM.

`O=S(=O)(c1ccc(-c2n[nH]c3ncc(-c4ccc5c(c4)CCN(C4CCOCC4)CC5)cc23)cc1)C1CC1` [Example 26, 7-{3-[4-(Cyclopropanesulfonyl)phenyl]-1H-pyrazolo[3,4-b]pyridin-5-yl}-3-(oxan-4-yl)-2,3,4,5-tetrahydro-1H-3-benzazepine]: the results for the IC50 at human MER and against human TYRO3 were more than 1000 nM and 100 to 1000 nM, respectively.

As to `O=S(=O)(c1ccc(-c2n[nH]c3ncc(-c4ccc5c(c4)CCN(CC4CCOC4)CC5)cc23)cc1)C1CC1` (stereo not shown) [Example 27, 7-{3-[4-(Cyclopropanesulfonyl)phenyl]-1H-pyrazolo[3,4-b]pyridin-5-yl}-3-[(oxolan-3-yl)methyl]-2,3,4,5-tetrahydro-1H-3-benzazepine], the IC50 against human MER and against human TYRO3 was more than 1000 nM in each case.

Regarding `CS(=O)(=O)c1ccc(-c2n[nH]c3ncc(-c4ccc5c(c4)CCN(C4CCCC4)CC5)cc23)cc1` [Example 30, 3-Cyclopentyl-7-(3-(4-(methylsulfonyl)phenyl)-1H-pyrazolo[3,4-b]pyridin-5-yl)-2,3,4,5-tetrahydro-1H-benzo[d]azepine], the IC50 against human MER was 100 to 1000 nM; on human TYRO3 it was less than 100 nM.

Regarding `CS(=O)(=O)c1ccc(-c2n[nH]c3ncc(-c4ccc5c(c4)CCN(C4CCCC4)CC5)cc23)cc1Cl` [Example 31, 7-(3-(3-Chloro-4-(methylsulfonyl)phenyl)-1H-pyrazolo[3,4-b]pyridin-5-yl)-3-cyclopentyl-2,3,4,5-tetrahydro-1H-benzo[d]azepine], the 50% inhibitory concentration (IC50) was 100 to 1000 nM against human MER and less than 100 nM on human TYRO3.

In the case of `CS(=O)(=O)c1ccc(-c2n[nH]c3ncc(-c4ccc5c(c4)CCN(C4CCCC4)CC5)cc23)cc1F` [Example 32, 3-Cyclopentyl-7-(3-(3-fluoro-4-(methylsulfonyl)phenyl)-1H-pyrazolo[3,4-b]pyridin-5-yl)-2,3,4,5-tetrahydro-1H-benzo[d]azepine], the half-inhibitory concentration (IC50) against human MER and against human TYRO3 was 100 to 1000 nM in each case.

For the molecule `COCCN1CCc2ccc(-c3cnc4[nH]nc(-c5ccc(C(C)(C)O)c(Cl)c5)c4c3)cc2CC1` [Example 34, 2-(2-Chloro-4-(5-(3-(2-methoxyethyl)-2,3,4,5-tetrahydro-1H-benzo[d]azepin-7-yl)-1H-pyrazolo[3,4-b]pyridin-3-yl)phenyl)propan-2-ol], the IC50 is more than 1000 nM at human MER and 100 to 1000 nM against human TYRO3.

With `C[C@@H]1CCCN1C1CCc2ccc(-c3cnc4[nH]nc(-c5ccc(C(C)(C)O)c(Cl)c5)c4c3)cc2CC1` (stereo partly drawn) [Example 35, 2-(2-Chloro-4-(5-(7-((R)-2-methylpyrrolidin-1-yl)-6,7,8,9-tetrahydro-5H-benzo[7]annulen-2-yl)-1H-pyrazolo[3,4-b]pyridin-3-yl)phenyl)propan-2-ol], the half-maximal inhibitory concentration (IC50) against human MER and on human TYRO3 was 100 to 1000 nM throughout.

Turning to `C[C@H]1CCCN1C1CCc2ccc(-c3cnc4[nH]nc(-c5ccc(S(C)(=O)=O)cc5)c4c3)cc2CC1` (stereo partly drawn) [Example 36, 5-(7-((S)-2-Methylpyrrolidin-1-yl)-6,7,8,9-tetrahydro-5H-benzo[7]annulen-2-yl)-3-(4-(methylsulfonyl)phenyl)-1H-pyrazolo[3,4-b]pyridine], the IC50 is 100 to 1000 nM on human MER and less than 100 nM on human TYRO3.

Take `C[C@H]1CCCN1C1CCc2ccc(-c3cnc4[nH]nc(-c5ccc(C(C)(C)O)c(Cl)c5)c4c3)cc2CC1` (stereo partly drawn) [Example 37, 2-(2-Chloro-4-(5-(7-((S)-2-methylpyrrolidin-1-yl)-6,7,8,9-tetrahydro-5H-benzo[7]annulen-2-yl)-1H-pyrazolo[3,4-b]pyridin-3-yl)phenyl)propan-2-ol]: the IC50 against human MER and against human TYRO3 was 100 to 1000 nM each time.

As to `C[C@@H]1CCCN1C1CCc2ccc(-c3cnc4[nH]nc(-c5ccc(S(C)(=O)=O)cc5)c4c3)cc2CC1` (stereo partly drawn) [Example 38, 5-(7-((R)-2-Methylpyrrolidin-1-yl)-6,7,8,9-tetrahydro-5H-benzo[7]annulen-2-yl)-3-(4-(methylsulfonyl)phenyl)-1H-pyrazolo[3,4-b]pyridine], the figures for the IC50 against human MER and against human TYRO3 were 100 to 1000 nM and less than 100 nM, respectively.

In the case of `C[C@@H]1CCCN1C1CCc2ccc(-c3cnc4[nH]nc(-c5ccc(S(=O)(=O)C6CC6)cc5)c4c3)cc2CC1` (stereo partly drawn) [Example 39, 3-(4-(Cyclopropylsulfonyl)phenyl)-5-(7-((R)-2-methylpyrrolidin-1-yl)-6,7,8,9-tetrahydro-5H-benzo[7]annulen-2-yl)-1H-pyrazolo[3,4-b]pyridine], the IC50 on human MER and against human TYRO3 was 100 to 1000 nM each time.
